# Entries after “also recorded” stand apart in the source; their conditions may differ.
# Legend:
# [1] = system: TNF-α mRNA; assay: Ocular TNF-α mRNA by quantitative real-time PCR in CEC dry eye mice; assay type: in vivo, C57BL6 mice; conditions: CEC 14 days, then topical PDSP for 5 days
# Method: Dry eye is associated with abnormalities in the pre-corneal tear film and subsequent inflammatory changes in the entire ocular surface including the adnexa, conjunctiva and cornea. (see, Hessen et al., “Dry eye: An Inflammatory Ocular Disease,” J. Ophthalmic Vis. Res., 2014, 9(2): 240-250). Therefore, the effects of PDSPs in corneal inflammatory responses were next examined. Briefly, C57BL6 mice were housed in CEC for 14 days (Day 0) and then treatment with PDSP or vehicle were performed for additional 5 days (Day 5). Then, mRNA levels for inflammatory factors were evaluated by quantitative real-time PCR.
# The total RNA was extracted from cells using TRIzol (Invitrogen) and treated with RNase free DNase I (Qiagen, Santa Clarita, CA) to remove genomic DNA and then purified with an RNA purification kit (Dynabeads; Invitrogen). […] Quantitative real-time PCR was performed in a GeneAmp 7700 sequence detection system (Applied Biosystems, Foster City, CA). […] All determinations were measured in triplicate. The cycle threshold (Ct) values corresponded to the PCR cycle number at which fluorescence emission in real time reaches a threshold above the base-line emission were analyzed using GeneAmp 7700 SDS software. The Ct value of the PCR product of interest and a control mRNA (GAPDH) were then used to calculate relative quantities of mRNA between samples.
# [2] = system: goblet cells in the conjunctiva; assay: PAS staining of conjunctival goblet cells in CEC dry eye mice; assay type: in vivo, C57BL/6 mice; conditions: CEC 14 days, then eye drop for 5 days; vehicle 37±1.1; non-stressed 58±3.1
# Method: Reduced mucin production could result from reduced goblet cells. […] Briefly, C57BL6 mice were housed in CEC for 14 days and then treated with PDSP or vehicle for additional 5 days. Non-stressed eyes are included as non-stressed controls (NS).
# (§1) Dry eye was induced by placing mice in a controlled environment chamber (CEC) as previously described (Barabino et al., 2005). Briefly, mice placed in the CEC were exposed to a relative humidity (RH)<25%, temperature of 20 to 22° C., and airflow of 15 L/min, 12 hours per day. Non-stressed (NS) mice without stress-induced dry eye were kept in a normal environment (RH >50%, no air flow, temperature of 21-23° C.) for the same duration. Corneal fluorescein staining and
# After animals were euthanized, eyes were surgically excised, fixed in 10% formalin, paraffin embedded, and cut into 5-μm sections. […] PAS-positive goblet cells in the conjunctiva were measured in five sections from each eye.
# [3] = system: desiccating stress-induced dry eye; assay: Tear production by phenol red thread test in CEC dry eye mice; assay type: in vivo, C57BL/6 mice; conditions: CEC 14 days
# Method: as §1
# Tear production was measured with phenol red-impregnated cotton threads (Zone-Quick; Oasis, Glendora, CA). The validity of this test in mice was performed as previously described (Dursun et al., 2002). The threads were held with jeweler forceps and placed in the lateral canthus for 60 seconds. The tear production is expressed in millimeters of thread that is wet by the tear and turned red.
# To determine whether PDSP have therapeutic effects in a desiccating stress (DS)-induced ocular surface defects, mice were housed at controlled environment chamber (CEC) for 14 days to create ocular surface disruption. After 14 days in CEC, we used mice with fluorescence scores that are above 2 for the first experiments (FIG. 1A). […]
substance,measurement,setting,value
"PDSP: 29mer, residues 93-121 of human PEDF: SLGAEQRTESIIHRALYYDLISSPDIHGT (SEQ ID NO:4) (listed as Homo sapiens)",repression of ocular TNF-α mRNA expression compared to vehicle-treated group,[1],1.9 fold
same,conjunctival goblet cell counts (PAS-positive cells),[2],46±3.8
same,tear production (cotton thread test),"[3]; then PDSP for 5 days, vehicle 4.5±0.2, day 0 3.8±0.5, non-stressed 5.4±0.4",5±0.3 mm
same,"tear production (phenol red thread), human vs mouse PDSP","[3]; then peptide for 3 days (FIG. 12), listed as human PDSP",capable of restore; also recorded: improved tear productions to the same extent

# — US11760784B2, “Compositions comprising PEDF-derived short peptides and uses thereof” (BRIM Biotechnology, Inc., priority 2016, dated 2023)
